These results are taken from patent US20090258917A1 (priority 2005, published 2009).

The target of this test is T1, mPGES-1 (Homo sapiens, UniProt O14684).
T1 construct: made in house; host or cells: E. coli
T1 sequence (O14684 1-152): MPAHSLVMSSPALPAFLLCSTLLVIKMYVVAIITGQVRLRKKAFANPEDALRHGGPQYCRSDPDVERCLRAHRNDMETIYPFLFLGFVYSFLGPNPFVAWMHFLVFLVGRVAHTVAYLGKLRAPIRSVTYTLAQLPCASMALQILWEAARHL
Description: mPGES-1 assay: conversion of PGH2 to PGE2, PGE2 analysed by HPLC. The class given is biochemical. On the procedure:
In the assay mPGES-1 catalyses the reaction where the substrate PGH2 is converted to PGE2. mPGES-1 is expressed in E. coli and the membrane fraction is dissolved in 20 mM NaPi-buffer pH 8.0 and stored at −80° C. […] The stop solution consists of H2O/MeCN (7/3), containing FeCl2 (25 mM) and HCl (0.15 M). The assay is performed at room temperature in 96-well plates.
The following is added chronologically to each well: • 1. 100 μL mPGES-1 in KPi-buffer with glutathione. Total protein concentration: 0.02 mg/mL. • 2. 1 μL inhibitor in DMSO. Incubation of the plate at room temperature for 25 minutes. • 3. 4 μL of a 0.25 mM PGH2 solution. Incubation of the plate at room temperature for 60 seconds. • 4. 100 μL stop solution. • 180 μL per sample is analyzed with HPLC.

The mark [1] stands for this setting: biological test described above, 10 μM or below, read-out: concentration giving 50% inhibition of mPGES-1.
Setting [2] is: mPGES-1 expressed in E. coli, 25 min preincubation with inhibitor, 60 s with PGH2, room temperature, read-out: IC50.

The structures appear in SMILES notation. Read-outs that look alike come from different tables or passages of the source. A value given as a limit tells only on which side of the number the result lay.

As to `CC(C)c1ccc2oc(-c3cccc(NC(=O)c4cc(Cl)ccc4Cl)c3)nc2c1`, the IC50 under setting [1] is not above 10 µM.

Turning to `Cc1cc(C)c2oc(-c3ccc(C)c(NC(=O)c4ccc(Cl)cc4Cl)c3)nc2c1` [2,4-dichloro-N-[2-methyl-5-(5,7-dimethylbenzoxazol-2-yl)phenyl]benzamide], under setting [1], the IC50 was not above 10 µM.

For the compound `Cc1cc2nc(-c3cccc(NC(=O)c4cc(Cl)ccc4Cl)c3)oc2cc1C` [2,5-dichloro-N-[3-(5,6-dimethylbemoxazol-2-yl)phenyl]benzamide], the IC50 under setting [1] was not above 10 µM.

Take `O=C(Nc1cccc(-c2nc3cc(Cl)cc(Cl)c3o2)c1)c1ccccc1Br` [2-bromo-N-[3-(5,7-dichlorobenzoxazol-2-yl)phenyl]benzamide]: the IC50 under setting [1] is not above 10 µM.

For `Cc1ccc2oc(-c3cccc(NC(=O)c4ccccc4Cl)c3)nc2c1` [2-chloro-N-[3-(5-methylbenzoxazol-2-yl)phenyl]benzamide], the IC50 under setting [1] was not above 10 µM.

`O=C(Nc1ccc(Cl)c(-c2nc3cc(Cl)ccc3o2)c1)c1ccc([N+](=O)[O-])cc1Cl` [2-chloro-N-[4-chloro-3-(5-chlorobenzoxazol-2-yl)phenyl]-4-nitrobenzamide]: the IC50 under setting [1] is not above 10 µM.

For the compound `O=C(Nc1ccc(Cl)c(-c2nc3cc(Cl)ccc3o2)c1)c1ccccc1Cl` [2-chloro-N-[4-chloro-3-(5-chlorobenzoxazol-2-yl)phenyl]benzamide], under setting [1], the IC50 was not above 10 µM.

Regarding `CC(C)c1ccc2oc(-c3cc(NC(=O)c4ccccc4Cl)ccc3Cl)nc2c1` [2-chloro-N-[4-chloro-3-(5-isopropylbenzoxazol-2yl)phenyl]benzamide], under setting [1], the IC50 was not above 10 µM.

For the compound `Cc1ccc2oc(-c3cccc(NC(=O)c4ccccc4[N+](=O)[O-])c3)nc2c1` [Example 3, N-[3-(5-Methylbenzoxazol-2-yl)phenyl]-2-nitrobenzamide], under setting [2], the IC50 stood at 1.9 µM.

For the compound `Cc1ccc2oc(-c3cc(NC(=O)c4ccccc4OC(F)(F)F)ccc3Cl)nc2c1` [Example 20, N-[4-Chloro-3-(5-methylbenzoxazol-2-yl)phenyl]-2-trifluoromethoxybenzamide], the IC50 under setting [2] came out at 2.3 µM.

For `Cc1ccc2oc(-c3cc(NC(=O)c4ccccc4F)ccc3Cl)nc2c1` [Example 23, N-[4-Chloro-3-(5-methylbenzoxazol-2-yl)phenyl]-2-fluorobenzamide], the IC50 under setting [2] is 2.6 µM.

As for `O=C(Nc1ccc(Cl)c(-c2nc3cc(Cl)ccc3o2)c1)c1ccccc1[N+](=O)[O-]` [N-[4-chloro-3-(5-chlorobenzoxazol-2-yl)phenyl]-2-nitrobenzamide], the IC50 under setting [1] is not above 10 µM.

As for `CC(C)c1ccc2oc(-c3cc(NC(=O)c4ccccc4[N+](=O)[O-])ccc3Cl)nc2c1` [N-[4-chloro-3-(5-isopropylbenzoxazol-2-yl)phenyl]-2-nitrobenzamide], the IC50 under setting [1] is not above 10 µM.

Take `COc1ccc(C(=O)Nc2ccc(Cl)c(-c3nc4cc(C(C)C)ccc4o3)c2)cc1[N+](=O)[O-]` [N-[4-chloro-3-(5-isopropylbenzoxazol-2-yl)phenyl]-4-methoxy-3-nitrobenzamide]: the IC50 under setting [1] was not above 10 µM.

Take `CC(C)c1ccc2oc(-c3cc(NC(=O)c4cccnc4)ccc3Cl)nc2c1` [N-[4-chloro-3-(5-isopropylbenzoxazol-2-yl)phenyl]nicotinamide]: the IC50 under setting [1] was not above 10 µM.
